Measurements published in ChEMBL document CHEMBL1201862, “PubChem BioAssay data set” (2004).
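96-well plates; 48 h exposure; 5 concentrations. Endpoints by linear interpolation between flanking doses. Not reached: highest tested concentration assigned. The concentration for 50% growth inhibition is given as GI50.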 Calls of active or inactive are those of the source. Rule as the data show it: active = GI50 up to about 1.1 µM and inactive = higher.

What was measured:
Experiment in all cases: NCI anticancer screen, dose series, 48 h
A498 = test system: A498
ACHN = test system: ACHN
EKVX = test system: EKVX
HCC 2998 = test system: HCC 2998
HL-60 = test system: HL-60
HOP-62 = test system: HOP-62
HOP-92 = test system: HOP-92
MDA-MB-231 = test system: MDA-MB-231
MDA-MB-435 = test system: MDA-MB-435
MDA-N = test system: MDA-N
MOLT-4 = test system: MOLT-4
NCI-H522 = test system: NCI-H522
OVCAR-3 = test system: OVCAR-3
OVCAR-5 = test system: OVCAR-5
PC-3 = test system: PC-3
SF-295 = test system: SF-295
SN12C = test system: SN12C
SNB-75 = test system: SNB-75
T47D = test system: T47D
UO-31 = test system: UO-31

| SMILES | GI50 (A498) | GI50 (ACHN) | GI50 (EKVX) | GI50 (HCC 2998) | GI50 (HL-60) | GI50 (HOP-62) | GI50 (HOP-92) | GI50 (MDA-MB-231) | GI50 (MDA-MB-435) | GI50 (MDA-N) | GI50 (MOLT-4) | GI50 (NCI-H522) | GI50 (OVCAR-3) | GI50 (OVCAR-5) | GI50 (PC-3) | GI50 (SF-295) | GI50 (SN12C) | GI50 (SNB-75) | GI50 (T47D) | GI50 (UO-31) |
| --- | --- | --- | --- | --- | --- | --- | --- | --- | --- | --- | --- | --- | --- | --- | --- | --- | --- | --- | --- | --- |
| CCOC(=O)C1=C(C)NC(C)=C(C(=O)OCC)C1c1ccc(Cl)cc1 | 16.4 µM (inactive) | 16 µM (inactive) | 16.8 µM (inactive) | 14.7 µM (inactive) | 0.774 µM (active) | 14.8 µM (inactive) | 10.3 µM (inactive) | 15.3 µM (inactive) | 14.4 µM (inactive) | 13.2 µM (inactive) | 6.1 µM (inactive) | 16 µM (inactive) | 15.8 µM (inactive) | 13.4 µM (inactive) | 14.9 µM (inactive) | 12.7 µM (inactive) | 19.4 µM (inactive) | 18.7 µM (inactive) | 15.6 µM (inactive) | 20.3 µM (inactive) |
| Cc1ccc2c(/C=C/c3ccc(N(C)C)cc3)ccnc2c1C | > 100 µM (inactive) | 25.8 µM (inactive) | 40.4 µM (inactive) | 27.9 µM (inactive) | 21.2 µM (inactive) | 30.8 µM (inactive) | 15.1 µM (inactive) | 16.6 µM (inactive) | 4.57 µM (inactive) | 3.99 µM (inactive) | 38.6 µM (inactive) | 19.1 µM (inactive) | 32.4 µM (inactive) | 64 µM (inactive) | 18.7 µM (inactive) | 22.4 µM (inactive) | 20.6 µM (inactive) | 15.4 µM (inactive) | 21.1 µM (inactive) | 19.3 µM (inactive) |
| c1ccc2c(c1)CCN(C1=NCCO1)C2 | > 10 µM (inactive) | > 10 µM (inactive) | > 10 µM (inactive) | > 10 µM (inactive) | > 10 µM (inactive) | > 10 µM (inactive) | > 10 µM (inactive) | > 10 µM (inactive) | > 10 µM (inactive) | > 10 µM (inactive) | > 10 µM (inactive) | > 10 µM (inactive) | > 10 µM (inactive) | > 10 µM (inactive) | > 10 µM (inactive) | > 10 µM (inactive) | > 10 µM (inactive) | > 10 µM (inactive) | > 10 µM (inactive) | > 10 µM (inactive) |
| CCOC(=O)CCC(NC(=O)c1ccc(OCc2ccc3nc(-c4ccccc4)c(Cl)nc3c2)cc1)C(=O)OCC (stereo not drawn) | 36.1 µM (inactive) | 26.9 µM (inactive) | 19.9 µM (inactive) | > 31.6 µM (inactive) | 7.29 µM (inactive) | > 31.6 µM (inactive) | 15.6 µM (inactive) | 24.3 µM (inactive) | > 31.6 µM (inactive) | > 100 µM (inactive) | > 31.6 µM (inactive) | 17.4 µM (inactive) | > 31.6 µM (inactive) | > 31.6 µM (inactive) | 7.4 µM (inactive) | 22 µM (inactive) | > 100 µM (inactive) | 16.8 µM (inactive) | 16.6 µM (inactive) | > 31.6 µM (inactive) |
| CCN(CC)N1C(=O)[N-][N+](CC)(CC)C1=O | > 100 µM (inactive) | > 100 µM (inactive) | > 100 µM (inactive) | > 100 µM (inactive) | > 100 µM (inactive) | > 100 µM (inactive) | > 100 µM (inactive) | > 100 µM (inactive) | > 100 µM (inactive) | > 100 µM (inactive) | > 100 µM (inactive) | > 100 µM (inactive) | > 100 µM (inactive) | > 100 µM (inactive) | > 100 µM (inactive) | > 100 µM (inactive) | > 100 µM (inactive) | > 100 µM (inactive) | > 100 µM (inactive) | > 100 µM (inactive) |
| O=[N+]([O-])/C(C(Cl)=C(Cl)Cl)=C(/Nc1ccccc1)Sc1ccccc1 | 20.8 µM (inactive) | 19.1 µM (inactive) | 19.6 µM (inactive) | 18.5 µM (inactive) | 20.6 µM (inactive) | 19.5 µM (inactive) | 32.8 µM (inactive) | 15.7 µM (inactive) | 18.1 µM (inactive) | 24.9 µM (inactive) | 19.8 µM (inactive) | 16.2 µM (inactive) | 15.7 µM (inactive) | – | 18.5 µM (inactive) | 16.5 µM (inactive) | 26.9 µM (inactive) | – | 19.7 µM (inactive) | 14 µM (inactive) |
| COC(=O)C1(Cc2ccc3c(c2)CCC3)Cc2cc3c(cc2C1)CCC3 | 35.2 µM (inactive) | 38.3 µM (inactive) | 45.2 µM (inactive) | 27.2 µM (inactive) | 36.9 µM (inactive) | > 100 µM (inactive) | 25.8 µM (inactive) | 22.9 µM (inactive) | 39 µM (inactive) | 40.6 µM (inactive) | 29.8 µM (inactive) | 22.1 µM (inactive) | 45.6 µM (inactive) | 55.6 µM (inactive) | 46 µM (inactive) | 33.3 µM (inactive) | 50.5 µM (inactive) | 46.6 µM (inactive) | 21.4 µM (inactive) | 49.9 µM (inactive) |
| N#C/C(=C1C=C(Br)/C(=N\O)C=C\1Cl)c1cccc2ccccc12 | 9.02 µM (inactive) | 11 µM (inactive) | 10.8 µM (inactive) | 5.77 µM (inactive) | 2.3 µM (inactive) | 10.3 µM (inactive) | 8.57 µM (inactive) | 4.32 µM (inactive) | 2.62 µM (inactive) | 1.61 µM (inactive) | 3.75 µM (inactive) | 2.52 µM (inactive) | 2.76 µM (inactive) | 3.55 µM (inactive) | 2.89 µM (inactive) | 3.12 µM (inactive) | 8.49 µM (inactive) | 0.121 µM (active) | 2.38 µM (inactive) | 11 µM (inactive) |
| O=C1c2cccc3cccc(c23)C(=O)N1CCCNCCCNCCCCNCCCNCCCN1C(=O)c2cccc3cccc(c23)C1=O | 6.38 µM (inactive) | 3.97 µM (inactive) | 5.48 µM (inactive) | 3.52 µM (inactive) | 0.27 µM (active) | 3.79 µM (inactive) | 5.05 µM (inactive) | 3.78 µM (inactive) | 2.73 µM (inactive) | 2.36 µM (inactive) | 0.376 µM (active) | 0.789 µM (active) | 4.67 µM (inactive) | 6.14 µM (inactive) | 3.23 µM (inactive) | 7.45 µM (inactive) | 3.44 µM (inactive) | 2.52 µM (inactive) | 5.26 µM (inactive) | 13.1 µM (inactive) |
| CNC(=O)N(CCC#N)CCCN(C(=O)N(C)C)c1ccccc1 | > 100 µM (inactive) | > 100 µM (inactive) | > 100 µM (inactive) | > 100 µM (inactive) | > 100 µM (inactive) | > 100 µM (inactive) | > 100 µM (inactive) | > 100 µM (inactive) | > 100 µM (inactive) | > 100 µM (inactive) | > 100 µM (inactive) | > 100 µM (inactive) | > 100 µM (inactive) | > 100 µM (inactive) | > 100 µM (inactive) | > 100 µM (inactive) | > 100 µM (inactive) | > 100 µM (inactive) | > 100 µM (inactive) | > 100 µM (inactive) |
| CCCCCCCCCC(=O)N[C@@H](c1ccco1)[C@@H](O)C(=O)O[C@H]1C[C@@]2(O)[C@@H](OC(=O)c3ccccc3)[C@@H]3[C@]4(OC(C)=O)CO[C@@H]4C[C@H](O)[C@@]3(C)C(=O)[C@H](OC(C)=O)C(=C1C)C2(C)C | 0.082 µM (active) | 2.92 µM (inactive) | 10 µM (inactive) | 0.0703 µM (active) | 0.00966 µM (active) | 0.0593 µM (active) | 0.0296 µM (active) | 0.101 µM (active) | < 0.005 µM (active) | < 0.005 µM (active) | 0.0124 µM (active) | 0.0149 µM (active) | 0.00914 µM (active) | 0.0196 µM (active) | 0.64 µM (active) | 0.0389 µM (active) | 0.0407 µM (active) | 0.989 µM (active) | 0.178 µM (active) | 1.66 µM (inactive) |
| CCOC(=O)C(SCCO)C(C(=O)OCC)n1cnc2c(=O)[nH]c(NC(C)=O)nc21 (stereo not drawn) | > 100 µM (inactive) | > 100 µM (inactive) | > 100 µM (inactive) | > 100 µM (inactive) | > 100 µM (inactive) | > 100 µM (inactive) | > 100 µM (inactive) | > 100 µM (inactive) | > 100 µM (inactive) | > 100 µM (inactive) | > 100 µM (inactive) | > 100 µM (inactive) | > 100 µM (inactive) | > 100 µM (inactive) | > 100 µM (inactive) | > 100 µM (inactive) | > 100 µM (inactive) | > 100 µM (inactive) | > 100 µM (inactive) | > 100 µM (inactive) |
| O=c1c(C(c2ccc3c(c2)Cc2ccccc2-3)c2c(O)oc3ccccc3c2=O)c(O)oc2ccccc12 | 38.5 µM (inactive) | 23.9 µM (inactive) | 48.9 µM (inactive) | 18.7 µM (inactive) | 29.2 µM (inactive) | 32.5 µM (inactive) | 19.1 µM (inactive) | 28.2 µM (inactive) | 31 µM (inactive) | 19.9 µM (inactive) | 40.6 µM (inactive) | 21.9 µM (inactive) | 31 µM (inactive) | 23.7 µM (inactive) | 37.8 µM (inactive) | 25.2 µM (inactive) | 20.4 µM (inactive) | 20.7 µM (inactive) | 41.5 µM (inactive) | 16.7 µM (inactive) |
| CC(C)C[C@H](NC(=O)[C@H](Cc1cccc2ccccc12)NC(=O)N1CCOCC1)B(O)O | < 0.01 µM (active) | < 0.01 µM (active) | 0.0334 µM (active) | < 0.01 µM (active) | < 0.01 µM (active) | < 0.01 µM (active) | < 0.01 µM (active) | < 0.01 µM (active) | < 0.01 µM (active) | < 0.01 µM (active) | < 0.01 µM (active) | < 0.01 µM (active) | < 0.01 µM (active) | < 0.01 µM (active) | < 0.0108 µM (active) | 0.00348 µM (active) | < 0.01 µM (active) | < 0.01 µM (active) | < 0.01 µM (active) | 0.0313 µM (active) |
